Measurements reported in ChEMBL document CHEMBL3885861, “Open TG-GATES”.

Species: Rattus norvegicus
Test: Open TG-GATES - Regimen: Single
Type: toxicity, organism-based, Sprague-Dawley
Set-up: regimen Single, gender Male, age 6 weeks
Conditions: in vivo, po, 450 mg/kg, route gavage, dose level Low; for APTT / Bas / Eos / Fbg / Hb / Ht / Lym / MCH / MCHC / MCV / Mono / Neu / Plat / RBC / Ret / WBC: tissue Blood; for KIDNEY_L / KIDNEY_R / KIDNEY_TOTAL: tissue Kidney; for LIVER: tissue Liver; for ALP / ALT / AST / BUN / CRE / Ca / Cl / DBIL / GLC / IP / K / LDH / Na / PL / RALB / TBIL / TC / TG / TP / gamma-GTP: tissue Plasma

## CC(=O)Oc1ccccc1C(=O)O [ASPIRIN]
9 h
  TERMINAL_BW: 215.1 g
  APTT: 21.4 s
  Bas: 0%
  Eos: 0.8%
  Fbg: 220.4 mg/dL
  Hb: 13.6 g/dL
  Ht: 38.2%
  Lym: 68.2%
  MCH: 21.9 pg
  MCHC: 35.5%
  MCV: 61.8 fL
  Mono: 2.2%
  Neu: 28%
  Plat: 124.6 x10_4/uL
  RBC: 619.4 x10_4/ul
  Ret: 8.4%
  WBC: 94.9 x10_2/uL
  KIDNEY_L: 1 g
  KIDNEY_R: 1 g
  KIDNEY_TOTAL: 1.9 g
  LIVER: 7.9 g
  ALP: 828 IU/L
  ALT: 34.4 IU/L
  AST: 77.4 IU/L
  BUN: 13.2 mg/dL
  CRE: 0.4 mg/dL
  Ca: 9.1 mg/dL
  Cl: 106.8 meq/L
  DBIL: 0.05 mg/dL
  GLC: 201.2 mg/dL
  IP: 8.3 mg/dL
  K: 3.4 meq/L
  LDH: 210.2 IU/L
  Na: 141.2 meq/L
  PL: 93.4 mg/dL
  RALB: 3.3 g/dL
  TBIL: 0.096 mg/dL
  TC: 55.2 mg/dL
  TG: 12.6 mg/dL
  TP: 5.4 g/dL
  gamma-GTP: 0.8 IU/L
24 h
  TERMINAL_BW: 217.9 g
  APTT: 24.7 s
  Bas: 0.4%
  Eos: 1%
  Fbg: 222 mg/dL
  Hb: 14.4 g/dL
  Ht: 38.6%
  Lym: 79.8%
  MCH: 22.7 pg
  MCHC: 37.2%
  MCV: 60.9 fL
  Mono: 2.2%
  Neu: 16.2%
  Plat: 129 x10_4/uL
  RBC: 633.6 x10_4/ul
  Ret: 7.2%
  WBC: 106.4 x10_2/uL
  KIDNEY_L: 1 g
  KIDNEY_R: 1 g
  KIDNEY_TOTAL: 1.9 g
  LIVER: 9.2 g
  ALP: 905.4 IU/L
  ALT: 43.4 IU/L
  AST: 82.4 IU/L
  BUN: 15.8 mg/dL
  CRE: 0.5 mg/dL
  Ca: 10.4 mg/dL
  Cl: 104.6 meq/L
  DBIL: 0.048 mg/dL
  GLC: 196.4 mg/dL
  IP: 8.6 mg/dL
  K: 3.7 meq/L
  LDH: 199.2 IU/L
  Na: 141 meq/L
  PL: 107 mg/dL
  RALB: 3.5 g/dL
  TBIL: 0.092 mg/dL
  TC: 56 mg/dL
  TG: 39.6 mg/dL
  TP: 5.6 g/dL
  gamma-GTP: 1 IU/L
